In patent US20240092773A1, “DIHYDRO-CYCLOPENTA-ISOQUINOLINE SULFONAMIDES DERIVATIVES” (UCB Biopharma SRL, priority 2019, published 2024):

Target: IgE-Tb binding to soluble IgE receptor FcεR1α (Y131A mutation) (Homo sapiens, UniProt P01854, N146Q/N252Q)
Assay: In vitro FRET assay: inhibition of binding of IgE-Tb to receptor FcεR1α-Y131A-AF488
Conditions: read-out: FRET IC50 range

IgE-Tb binding to soluble IgE receptor FcεR1α (Y131A mutation), sequence (P01854 whole entry N146Q/N252Q, looked up): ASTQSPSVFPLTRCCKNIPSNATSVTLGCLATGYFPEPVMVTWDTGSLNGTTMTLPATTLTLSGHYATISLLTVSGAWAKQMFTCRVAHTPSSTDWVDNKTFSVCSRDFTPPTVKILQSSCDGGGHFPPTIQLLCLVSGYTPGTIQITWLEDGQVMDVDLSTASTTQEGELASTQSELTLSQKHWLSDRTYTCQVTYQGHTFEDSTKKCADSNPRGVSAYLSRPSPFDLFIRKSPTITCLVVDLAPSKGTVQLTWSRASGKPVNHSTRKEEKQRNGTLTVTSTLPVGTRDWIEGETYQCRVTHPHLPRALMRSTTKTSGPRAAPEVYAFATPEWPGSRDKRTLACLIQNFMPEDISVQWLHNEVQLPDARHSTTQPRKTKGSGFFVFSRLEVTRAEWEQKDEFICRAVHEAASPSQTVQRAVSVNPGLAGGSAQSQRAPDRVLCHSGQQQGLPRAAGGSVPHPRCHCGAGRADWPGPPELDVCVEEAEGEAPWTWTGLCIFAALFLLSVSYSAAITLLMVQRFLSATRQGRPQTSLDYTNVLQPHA

Row | Compound | IC50 [nM]
1 | CC(C)(F)CNS(=O)(=O)c1cc2c(c3cnc(C4CC4)cc13)CCC2n1nnnc1N (stereo not shown) [Example 39, 7-(5-aminotetrazol-1-yl)-3-cyclopropyl-N-(2-fluoro-2-methylpropyl)-8,9-dihydro-7H-cyclopenta[h]isoquinoline-5-sulfonamide] | 100 to 2000
2 | Cn1nnc(-c2ccc(NC3CCc4c3cc(S(=O)(=O)NCC(C)(C)F)c3cc(C5CC5)ncc43)cn2)n1 (stereo not shown) [Example 40, 3-cyclopropyl-N-(2-fluoro-2-methylpropyl)-7-[[6-(2-methyltetrazol-5-yl)pyridin-3-yl]amino]-8,9-dihydro-7H-cyclopenta[h]isoquinoline-5-sulfonamide] | 1 to 10
3 | Cn1ncc2c(NC3CCc4c3cc(S(=O)(=O)NCC(C)(C)F)c3cc(C5CC5)ncc43)cncc21 (stereo not shown) [Example 41, 3-cyclopropyl-N-(2-fluoro-2-methylpropyl)-7-[(1-methylpyrazolo[3,4-c]pyridin-4-yl)amino]-8,9-dihydro-7H-cyclopenta[h]isoquinoline-5-sulfonamide] | 10 to 50
4 | Cc1nnc(-c2ccc(NC3CCc4c3cc(S(=O)(=O)NCC(C)(C)F)c3cc(C5CC5)ncc43)cn2)o1 (stereo not shown) [Example 42, 3-cyclopropyl-N-(2-fluoro-2-methylpropyl)-7-[[6-(5-methyl-1,3,4-oxadiazol-2-yl)pyridin-3-yl]amino]-8,9-dihydro-7H-cyclopenta[h]isoquinoline-5-sulfonamide] | 1 to 10
5 | Cn1ncc2c(NC3CCc4cc(S(=O)(=O)NCC(C)(C)F)c5cc(C6CC6)ncc5c43)cncc21 (stereo not shown) [Example 43, 3-cyclopropyl-N-(2-fluoro-2-methylpropyl)-9-[(1-methylpyrazolo[3,4-c]pyridin-4-yl)amino]-8,9-dihydro-7H-cyclopenta[h]isoquinoline-5-sulfonamide] | 100 to 2000
6 | CC(C)CNS(=O)(=O)c1cc2c(c3cnc(C4CC4)cc13)C(NC(=O)OCc1ccccc1)CC2 (stereo not shown) [Example 44, benzyl N-[3-cyclopropyl-5-(2-methylpropylsulfamoyl)-8,9-dihydro-7H-cyclopenta[h]isoquinolin-9-yl]carbamate] | 100 to 2000
7 | CC(C)CNS(=O)(=O)c1cc2c(c3cnc(C4CC4)cc13)C(NC(=O)Nc1ccc(Br)cc1)CC2 (stereo not shown) [Example 45, 1-(4-bromophenyl)-3-[3-cyclopropyl-5-(2-methylpropylsulfamoyl)-8,9-dihydro-7H-cyclopenta[h]isoquinolin-9-yl]urea] | 100 to 2000
8 | Cc1cc(CNC(=O)NC2CCc3cc(S(=O)(=O)NCC(C)C)c4cc(C5CC5)ncc4c32)n(C)n1 (stereo not shown) [Example 46, 1-[3-cyclopropyl-5-(2-methylpropylsulfamoyl)-8,9-dihydro-7H-cyclopenta[h]isoquinolin-9-yl]-3-[(2,5-dimethylpyrazol-3-yl)methyl]urea] | 100 to 2000
9 | CC(C)CNS(=O)(=O)c1cc2c(c3cnc(C4CC4)cc13)CCC2O (stereo not shown) [Example 47, 3-cyclopropyl-7-hydroxy-N-(2-methylpropyl)-8,9-dihydro-7H-cyclopenta[h]isoquinoline-5-sulfonamide] | 100 to 2000
10 | CC(C)CNS(=O)(=O)c1cc2c(c3cnc(C4CC4)cc13)CCC2=O [Example 48, 3-cyclopropyl-N-(2-methylpropyl)-7-oxo-8,9-dihydrocyclopenta[h]isoquinoline-5-sulfonamide] | 100 to 2000
11 | CC(C)CNS(=O)(=O)c1cc2c(c3cnc(C4CC4)cc13)CCC2(C)O (stereo not shown) [Example 49, 3-cyclopropyl-7-hydroxy-7-methyl-N-(2-methylpropyl)-8,9-dihydrocyclopenta[h]isoquinoline-5-sulfonamide] | 100 to 2000
12 | CC(C)CNS(=O)(=O)c1cc2c(c3cnc(C4CC4)cc13)CCC2N (stereo not shown) [Example 50, 7-amino-3-cyclopropyl-N-(2-methylpropyl)-8,9-dihydro-7H-cyclopenta[h]isoquinoline-5-sulfonamide] | 100 to 2000
13 | CCNC(=S)NC1CCc2c1cc(S(=O)(=O)NCC(C)C)c1cc(C3CC3)ncc21 (stereo not shown) [Example 51, 1-[3-cyclopropyl-5-(2-methylpropylsulfamoyl)-8,9-dihydro-7H-cyclopenta[h]isoquinolin-7-yl]-3-ethylthiourea] | 100 to 2000
